Test results as given in patent US11091429B2, “Organic compounds” (Givaudan SA, priority 2012, dated 2021).
“Also recorded” adds a separate entry of the source.

Legend:
[1] = Tasting in mango juice drink, 1% clear mango juice; settings: 8% sucrose, 0.1% citric acid, mango flavour 0.05%
Method: Comparison in a Mango Juice Drink
Base is 8% sucrose, 0.1% citric acid, 1% clear mango juice, and a proprietary mango flavour at 0.05%.
(§1) Samples were evaluated by expert tasters. Tasters were asked to describe the samples focusing on authentic taste, mouthfeel, fullness, salty-ness, salivation, umami, sweetness, juiciness, richness, long lastingness and fattiness.
Base is water, 8% sucrose, 0.1% citric acid, 1% clear mango juice, proprietary mango flavour @ 0.05%
(§2) Samples were evaluated by expert tasters. Tasters were asked to describe the samples focusing on authentic taste, mouthfeel, fullness, salivation, salty-ness, umami, sweetness, juiciness, richness, long lastingness and fattiness.
Base is water, 8% sucrose, 0.1% citric acid, 1% clear mango juice, proprietary mango flavour @0.05%
(§3) Samples were evaluated by expert tasters. Tasters were asked to describe the samples focusing on authentic taste, mouthfeel, fullness, salty-ness, salivation, umami, sweetness, juiciness, richness, long lastingness and fattiness
Base is 8% sucrose, 0.1% citric acid, 1% clear mango juice, proprietary mango flavour @ 0.05%
(§4) Samples were evaluated by expert tasters. Tasters were asked to describe the samples focusing on authentic taste, mouth feel, fullness, salivation, salty-ness, umami, sweetness, juiciness, richness, long lastingness and fattiness
Base is water, 8% sucrose, 0.1% citric acid, 1% clear mango juice, proprietary mango flavour @ 0.05%.
Test in a Mango Juice Drink

[2] = Test in chocolate flavoured drink; settings: 0.5 ppm; water, 4% sucrose, chocolate flavour 0.03%
Method: (§5) Samples were prepared and evaluated by expert tasters. Tasters were asked to describe the samples focusing on authentic taste, mouthfeel, fullness, salty-ness, salivation, umami, sweetness, juiciness, richness, long lastingness and fattiness.
Test in Chocolate Flavoured Drink:
Base: Water, 4% sucrose, proprietary chocolate flavor at 0.03%
as §1
Test in Chocolate Flavoured Drink Flavoured
Base: Water, 4% sucrose, proprietary chocolate flavour @ 0.03%

[3] = Test in peach flavoured drink; settings: 1 ppm; water, 8% sugar, 0.1% citric acid, peach flavour 0.05%
Method: as §5
Test in Peach Flavoured Drink:
Base is water, 8% sugar, 0.1% citric acid, and proprietary peach flavour at 0.05%
as §1
Comparison in a Peach Drink
Base is water, 8% sugar, 0.1% citric acid, proprietary peach flavour at 0.05%
as §2

[4] = Test in pear flavoured drink; settings: water, 0.1% citric acid, pear flavour 0.025%
Method: as §5
Test in Pear Flavoured Drink:
Base: water, 7% sugar, 0.1% citric acid, proprietary pear flavour at 0.025%
as §1
Comparison in a Pear Drink
Base is water, 8% sugar, 0.1% citric acid, proprietary pear flavour at 0.025%

[5] = Tasting in vanilla milk 0.15% fat; settings: 1 ppm, 4% sucrose, Vaniline 10 ppm + vanilla extract 0.03%
Method: as §5
Base: Milk 0.15% fat, sweetened with 4% sucrose by weight, flavoured with proprietary
Vaniline flavour @ 10 ppm+Vanilla ext. @ 0.03%
as §1
Comparison in a Vanilla Milk Drink
Vaniline @ 10 ppm+Vanilla extract @ 0.03%
Base: Milk 0.15% fat, sweetened with 4% sucrose by weight, flavoured with proprietary Vaniline @ 10 ppm+Vanilla extract @ 0.03%

[6] = Test in lemon beverage; settings: 1 ppm; water, 7% sucrose, 0.15% citric acid, lemon flavor
Method: as §1
Basis water, 7% sucrose, 0.15% citric acid, proprietary lemon flavor
as §3

[7] = Tasting on fried potato snack product; settings: 35% fat, cheese seasoning
Method: (§6) The following formulations were prepared and tasted by trained panelists.
A snack product consisting of a fried potato base, containing 35% fat and flavored with cheese seasoning containing salt, MSG, dairy, organic acids, sugars, and a flavour formulation. The following compounds were added to the snack product at the indicated levels and the tasting results are reported: […]

[8] = Tasting in Maggi beef bouillon; settings: Maggi beef bouillon 1 tablet in 500 ml of hot water
Method: as §5
Comparison in Beef Bouillon
Base is Maggi beef bouillon 1 tablet in 500 ml of hot water
as §1, §2, §3, §4

[9] = Tasting in beef bouillon base; settings: 0.5% fat
Method: as §6
Beef Bouillon base 1.0% salt, 0.5% fat

[10] = Test in orange beverage; settings: 1 ppm; water, 7% sugar (8% sucrose elsewhere in the source), 0.1% citric acid, orange flavour 0.06%
Method: as §1
Base is water, 7% sugar, 0.1% citric acid, proprietary orange flavour @ 0.06%.
as §3
Base is water, 7% sugar, 0.1% citric acid, proprietary orange flavour @ 0.06%
as §4
Samples were evaluated by expert tasters. Tasters were asked to describe the samples focusing on authentic taste, mouthfeel, fullness, salivation, sweetness, juiciness, richness, long lastingness and fattiness
Comparison in an Orange Drink
Base: water, 8% sucrose, 0.1% citric acid, proprietary orange flavour @ 0.06%.

[11] = Tasting in strawberry flavoured sugar sweetened yoghurt; settings: 1.5% fat yoghurt, 8% sucrose, strawberry flavour 0.015%
Method: Strawberry Flavoured Sugar Sweetened Yoghurt
In a 1.5% fat yoghurt base, sweetened with 8% sucrose by weight, flavoured with a proprietary strawberry flavour @ 0.015% several different N-acyl aminoacids were added.
as §5
Test in a Strawberry Yoghurt
Base: Yoghurt 1.5% fat yoghurt, 8% sucrose, proprietary strawberry flavour @ 0.015%
as §2

[12] = Tasting in strawberry drink; settings: 0.5 ppm; 7% sucrose, 0.1% citric acid, strawberry flavour 0.015%
Method: as §5
Comparison in a Strawberry Drink
Base is 7% sucrose, 0.1% citric acid, and a proprietary strawberry flavour @ 0.015%
as §1
Base is water, 7% sucrose, 0.1% citric acid, proprietary strawberry flavour @ 0.015%
as §2
Test in a Strawberry Drink
Base is 7% sucrose, 0.1% citric acid, proprietary strawberry flavour @ 0.015%

[13] = Tasting in Activa strawberry yoghurt; settings: 2 ppm, 13.5% sugar, 3.2% fat
Excerpt: Activa Strawberry Yoghurt
In a Full fat, Activa strawberry flavoured yoghurt containing 13.5% sugar, 3.2% fat C18:2-gaba and C18:0-leu at 2 ppm

[14] = Tasting in vanilla flavoured milk 3.0% fat; settings: 4% sugar, vanillin 10 ppm, vanilla extract 0.03%
Method: Vanilla Flavoured Milk 3.0% Fat
In a 3% fat milk drink, sweetened with 4% sucrose by weight, flavoured with Vaniline @ 10 ppm and a Vanilla extract @ 0.03% C18:2-gaba, C18:1-ACOA and C18:1-glu were added at 0.5 or 2 ppm.
Samples were evaluated by expert tasters. Tasters were asked to describe the samples focusing on authentic taste, mouthfeel, fullness, salivation, sweetness, juiciness, richness, long lastingness and fattiness.
Base: Milk 3% fat, 4% sugar, vanillin 10 ppm, vanilla extract 0.03%

[15] = Tasting in soy sauce; settings: 0.5 ppm in Kikkoman soy sauce low salt
Method: as §6
Salt level pure product between 5-40%
Salt level in application 0.3-1.0%
as §5
Test on Kikkoman Soy Sauce Low Salt
Base is Kikkoman soy sauce
Samples were prepared and evaluated by expert tasters. Tasters were asked to describe the samples focusing on authentic taste, mouthfeel, fullness, salivation, salty-ness, umami, sweetness, juiciness, richness, long lastingness and fattiness.

[16] = Test on Tang; settings: 1 ppm, orange flavoured Tang
Method: In an orange flavoured Tang powdered soft drink (market product) sweetened with sucrose plus high intensity sweetener and containing citric acid, C18:2-gaba and C18:2-pro were tested.
All samples were evaluated by expert tasters. Tasters were asked to describe the samples focusing on authentic taste, mouthfeel & body, enhancement, richness, juiciness, long lastingness, salivation, sweetness, masking off notes of high intensity sweetener
Base is Orange Flavoured Tang

[17] = Tasting in mango still beverage, 6% clear mango juice; settings: 0.5 ppm; 6% clear mango juice (full juice)
Method: (§7) Mango Flavoured Still Beverage Containing Different Levels of Juice,
(§8) In a Mango flavoured still beverage, sweetened with 8% sucrose and containing 0.1% citric acid and 1%, 4% and 6% clear mango juice flavoured with a proprietary Mango flavour @ 0.05%, C18:2-gaba and C18:2-Pro were added, as such (separate) and in combination.
(§9) All samples were evaluated by expert tasters. Tasters were asked to describe the samples focusing on authentic taste, juicy mouthfeel, enhancement, richness, juiciness, long lastingness, salivation, sweetness.
In a Mango-flavoured still beverage, sweetened with 8% sucrose & containing 0.1% citric acid and 6% clear mango juice flavoured with Mango flavour@0.05%, C18:2-gaba and C18:2-Pro were added, as such (separate) and in combination.
Base is water, 8% sucrose, 0.1% citric acid, 6% clear mango juice (full juice), flavoured with Mango flavor, dosed at 0.05%.

[18] = Tasting in mango still beverage, 4% clear mango juice; settings: 0.5 ppm; 4% clear mango juice (30% reduced juice)
Method: as §7, §8, §9
In a Mango flavoured still beverage, sweetened with 8% sucrose & containing 0.1% citric acid and 4% clear mango juice flavoured with Mango flavour @ 0.05%, C18:2-gaba and C18:2-Pro were added, as such (separate) and in combination.
Base is water, 8% sucrose, 0.1% citric acid, 4% clear mango juice (30% reduced juice), flavoured with Mango flavor, dosed at 0.05%

## CCCCCCCCCCCCCCCC(=O)NC(CCC(=O)O)C(=O)O (centres unmarked) [C16:0-glu, N-palmitoyl-Glu]
[1]; 1 ppm
  tasting result: slightly more juicy impact
[2]
  tasting result: sweet, fatty cocoa, sulphur is enhanced, enhanced nib note
[3]
  tasting result: fruity, nice juicy, sweet, soft peach skin
[4]; 0.5 ppm, 7% sugar
  tasting result: fatty long lasting
[5]
  tasting result: ice cream like, sweet, very full

## CCCCCCCC/C=C\CCCCCCCC(=O)NC(CCSC)C(=O)O (centres unmarked) [C18:1-met]
[6]
  tasting result: fresh, less floral, very juicy, very authentic
[7]; 0.25 ppm on fried potato snack
  tasting result: Salty, aged cheese, succulent
[7]; 0.5 ppm on fried potato snack
  tasting result: Increased cheese, creamy, salty and succulent
[1]; 1 ppm
  tasting result: sweeter, juicy, salivating
[8]; 1 ppm
  tasting result: very strong salty impact and aftertaste; also recorded: very strong salty impact and aftertaste, more fatty, mouthfeel, lingering full bodied
[8]; 25 ppb
  tasting result: more peppery, more salty
[8]; 50 ppb
  tasting result: more salty, more bouillon taste
[9]; 0.5 PPM in beef bouillon base 1.0% salt
  tasting result: Very salty and rich
[9]; 1.0 PPM in beef bouillon base 1.0% salt
  tasting result: Full bodied, long lasting, more mouthfeel
[10]
  tasting result: very juicy fresh, authentic, juicy

## CCCCCC/C=C\CCCC(=O)NC(CCSC)C(=O)O (centres unmarked) [C12:1-met]
[6]
  tasting result: fresh, slightly more citral
[1]; 1 ppm
  tasting result: ripe full, more juicy, slightly metallic
[8]; 1 ppm
  tasting result: more salty
[10]
  tasting result: nice orange, fresh

## CCCCCCCCCCCCCCCCCC(=O)NC(CC(C)C)C(=O)O (centres unmarked) [C18:0-leu]
[1]; 2 ppm
  tasting result: fruity strawberry like, ripe, long lasting
[11]; 2 ppm
  tasting result: fruity authentic strawberry, stronger strawberry, ripe, long lasting, juicy, creamy yoghurt
[11]; 2 ppm, listed as C18:0 leu
  tasting result: Very juicy full, 3D, stronger nicer strawberry, long lasting nice creamy aftertaste
[11]; 5 ppm
  tasting result: Very juicy full, 3D, stronger nicer strawberry, salivating long lasting
[12]
  tasting result: fruity authentic strawberry, stronger strawberry, ripe, long lasting, juicy
[13]
  tasting result: very juicy strawberry full, 3D, stronger strawberry, long lasting and creamy

## N-oleoyl 1-amino-cyclopropyl carboxylic acid [C18:1-ACCA]
[14]; 0.5 ppm
  tasting result: sweet, sugar-like, vanillic
[15]
  tasting result: Strong upfront saltiness lingering, very strong saltiness

## CCCCCCCC/C=C\CCCCCCCC(=O)NC(CCC(=O)O)C(=O)O (centres unmarked) [C18:1-glu]
[1]; 1 ppm
  tasting result: heavy, jammy, enhanced mango, more sulfury, sl umami
[2]
  tasting result: full cocoa, nice sweet
[3]
  tasting result: ripe, much more juicy, long lasting, more fatty and sweet
[14]; 2 ppm
  tasting result: full, fatty, vanilla bean enhanced, whipped cream like
[4]; 0.5 ppm, 7% sugar
  tasting result: nice fatty, juicy, long lasting
[4]; 1 ppm, 7% sugar (8% elsewhere in the source)
  tasting result: ripe, authentic pear, juicy, fatty skin like
[12]
  tasting result: nice mouthfeel, more natural strawberry, full juicy
[5]
  tasting result: full, beany, more sweet; also recorded: sweet vanillic

## CCCCC/C=C\C/C=C\CCCCCCCC(=O)N1CCC[C@H]1C(=O)O [C18:2-Pro, N-linoleoyl-Pro]
[16]
  tasting result: very fresh, enhances sweet juicy orange notes, characteristic of authentic fresh orange fruit. Additionally, the off-notes of the high intensity sweetener were suppressed
[17]
  tasting result: more sweet, sugar-like, very juicy and long lasting sweet, salivating, syrupy
[6]
  tasting result: very juicy, more citral like, very authentic
[1]; 0.5 ppm
  tasting result: more sweet, sugar-like, very juicy and long lasting sweet, salivating
[18]
  tasting result: more sweet, sugar-like, very juicy and long lasting sweet, salivating
[10]
  tasting result: very juicy, authentic orange
